Consider six sequences from US7306804B2 (priority 1998, dated 2007).

“Also recorded” adds a separate entry of the source. Where two headings read alike, the source gives them in different places.

For experiment [1], the system named is HIV envelope protein gp160. As to conditions: cited from earlier work; for T-cell proliferative response to immunizing peptide and HIV Env protein gp160 / antibodies recognizing recombinant gp160: immunized mice; for T-cell proliferation responses: two F1 hybrid mouse strains (B6C3 F1 and A.SW×Balb/c F1).
The next experiment has as its system PBMCs. As to conditions: cited from earlier work.
Experiment [2] relates to peptide-pulsed autologous EBV-transformed B cells (B-LCL). The experiment is classed as cell-based, human.
Experiment [3] relates to anti-peptide antibodies in serum. The experiment is classed as binding, human. Further details: key to Anti-peptide antibody response: +, Positive (titer above control); −, Negative (titer below control).
Experiment [4] relates to PBMCs from normal and HIV-positive individuals. It counts as cell-based, human. The note with it: for number of HIV+ individuals with positive proliferative responses: 17 HIV+ individuals tested.
The subject of experiment [5] is anti-peptide antibodies in serum. It counts as binding, chimpanzee. On the set-up: key: +, Positive (Titer > 1:100); −, Negative (Titer < 1:100).
The subject of experiment [6] is PBMCs from control and HIV-1 infected chimpanzees. The experiment is classed as cell-based, chimpanzee.

Take FLGFLGAAGSTMGAASLTLTVQARQ [Peptide 63]: in experiment [1], the “T-cell proliferative response to immunizing peptide and HIV Env protein gp160” value was “induced a T-cell response against both the immunizing peptide and the HIV Env protein; also recorded: induced proliferative responses to both the immunizing peptide”; the “antibodies recognizing recombinant gp160” value was “did not produce antibodies that could recognize recombinant gp160”; the T-cell proliferation responses result was “relatively good T-cell proliferation responses”. For the same sequence, the “proliferative response of PBMCs” value with PBMCs (monkey, in vivo) was “good response”. Besides, in experiment [2], the “% Specific lysis at various E:T ratios 12.5:1” value is reported as 0%, the “% Specific lysis at various E:T ratios 25:1” value amounted to 7.9%, the “% Specific lysis at various E:T ratios 50:1” value was 8.8% and the “% Specific lysis at various E:T ratios 100:1” value is 17.6%. Moreover, in experiment [2], the “CTL activity against peptide-pulsed autologous B-LCLs” value is given as “significant CTL activity” and the “specific lysis of peptide-pulsed target cells” value is recorded as “also observed”.

For GTGPCTNVSTVQC [Peptide 116], in experiment [1], the T-cell proliferation responses entry is recorded as “relatively good T-cell proliferation responses”. Further, the “proliferative response of PBMCs” value with PBMCs (monkey, in vivo) was “weak responses”.

Turning to LWDQSLKPCVKLT [Peptide 111], the T-cell proliferation responses result in experiment [1] is listed as “relatively good T-cell proliferation responses”. In addition, the “proliferative response of PBMCs” value with PBMCs (three monkeys immunized with peptide cocktail) was “good response”.

Turning to “STRTPEDSNSLGT [c-mos peptide, reference compound]”, the Anti-peptide antibody response entry in experiment [3] (HIV-positive patient MSf), in experiment [3] (HIV-positive patient MSm), in experiment [3] (HIV-positive patient eight), in experiment [3] (HIV-positive patient eleven), in experiment [3] (HIV-positive patient fifteen) and in experiment [3] (HIV-positive patient five) was “−” throughout. For the same sequence, the Anti-peptide antibody response entry in experiment [3] (HIV-positive patient four), in experiment [3] (HIV-positive patient fourteen), in experiment [3] (HIV-positive patient nine), in experiment [3] (HIV-positive patient one), in experiment [3] (HIV-positive patient seven) and in experiment [3] (HIV-positive patient six) was “−” throughout. Besides, the Anti-peptide antibody response result in experiment [3] (HIV-positive patient ten), in experiment [3] (HIV-positive patient thirteen), in experiment [3] (HIV-positive patient three), in experiment [3] (HIV-positive patient twelve), in experiment [3] (HIV-positive patient two) and in experiment [3] (Normal-1 (HIV-seronegative)) was “−” in each case. The Anti-peptide antibody response result in experiment [3] (Normal-2 (HIV-seronegative)) is recorded as “−”; in experiment [5], “−”; in experiment [5] (chimpanzee 40, control normal) it was “−”; in experiment [5] (chimpanzee 73, control normal), “−”. Moreover, the “number of HIV+ individuals with positive proliferative responses” value is reported as “None” in experiment [4] and “none” in experiment [4] (listed as control peptide). Also, the T-cell proliferative response entry in experiment [4] (HIV-positive patient MSf) is recorded as “− (−, Negative (SI < 2.0))”; in experiment [4] (HIV-positive patient MSm), “− (−, Negative (SI < 2.0))”; in experiment [4] (HIV-positive patient eight) it was “− (−, Negative (SI < 2.0))”; in experiment [4] (HIV-positive patient eleven) it was “− (−, Negative (SI < 2.0))”; in experiment [4] (HIV-positive patient fifteen), “− (−, Negative (SI < 2.0))”; in experiment [4] (HIV-positive patient five), “− (−, Negative (SI < 2.0))”. For the same sequence, the T-cell proliferative response entry is listed as “− (−, Negative (SI < 2.0))” in experiment [4] (HIV-positive patient four); “− (−, Negative (SI < 2.0))” in experiment [4] (HIV-positive patient fourteen); “− (−, Negative (SI < 2.0))” in experiment [4] (HIV-positive patient nine); “− (−, Negative (SI < 2.0))” in experiment [4] (HIV-positive patient one); “− (−, Negative (SI < 2.0))” in experiment [4] (HIV-positive patient seven); “− (−, Negative (SI < 2.0))” in experiment [4] (HIV-positive patient six). The T-cell proliferative response result in experiment [4] (HIV-positive patient ten) was “− (−, Negative (SI < 2.0))”; in experiment [4] (HIV-positive patient thirteen) it was “− (−, Negative (SI < 2.0))”; in experiment [4] (HIV-positive patient three) it was “− (−, Negative (SI < 2.0))”; in experiment [4] (HIV-positive patient twelve), “− (−, Negative (SI < 2.0))”; in experiment [4] (HIV-positive patient two) it was “− (−, Negative (SI < 2.0))”; in experiment [4] (Normal-1 (HIV-seronegative)), “− (−, Negative (SI < 2.0))”. Moreover, the T-cell proliferative response result in experiment [4] (Normal-2 (HIV-seronegative)) was “− (−, Negative (SI < 2.0))”; in experiment [6] (chimpanzee 40, control normal), “− (−, Negative (SI < 2.0))”; in experiment [6] (chimpanzee 62, HIV-infected), “− (−, Negative (SI < 2.0))”; in experiment [6] (chimpanzee 69, HIV-infected), “− (−, Negative (SI < 2.0))”; in experiment [6] (chimpanzee 73, control normal), “− (−, Negative (SI < 2.0))”; in experiment [6] (chimpanzee 80, HIV-infected), “− (−, Negative (SI < 2.0))”. Moreover, the T-cell proliferative response result was “− (−, Negative (SI < 2.0))” in experiment [6] (chimpanzee 99, HIV-infected); “− (−, Negative (SI < 2.0))” in experiment [6] (chimpanzee 100, HIV-infected); “− (−, Negative (SI < 2.0))” in experiment [6] (chimpanzee 139, HIV-infected); “+ (+, Positive (Stimulation Index [SI] > 2.0))” in experiment [6] (chimpanzee 175, HIV-infected); “− (−, Negative (SI < 2.0))” in experiment [6] (chimpanzee 247, HIV-infected); “− (−, Negative (SI < 2.0))” in experiment [6] (chimpanzee 310, HIV-infected). Further, in experiment [6] (chimpanzee 175), the “SI, background level of proliferation” value is 2.7.

On to YLRDQQLLGIWG [Peptide 120], for which the Anti-peptide antibody response entry was “− and +” in experiment [3]; “−” in experiment [5]. In experiment [3], the “number of HIV+ individuals with positive antibody titers (<1:1280)” value is “two”. Also, the “number of HIV+ individuals with positive proliferative responses” value in experiment [4] was “five”. Besides, the T-cell proliferative response entry was “− (−, Negative (SI < 2.0))” in experiment [4] (HIV-positive patient MSf); “− (−, Negative (SI < 2.0))” in experiment [4] (HIV-positive patient MSm); “− (−, Negative (SI < 2.0))” in experiment [4] (HIV-positive patient eight); “+ (+, Positive (Stimulation Index [SI] > 2.0))” in experiment [4] (HIV-positive patient eleven); “+ (+, Positive (Stimulation Index [SI] > 2.0))” in experiment [4] (HIV-positive patient fifteen); “− (−, Negative (SI < 2.0))” in experiment [4] (HIV-positive patient five). In addition, the T-cell proliferative response entry in experiment [4] (HIV-positive patient four) was “− (−, Negative (SI < 2.0))”; in experiment [4] (HIV-positive patient fourteen), “− (−, Negative (SI < 2.0))”; in experiment [4] (HIV-positive patient nine), “+ (+, Positive (Stimulation Index [SI] > 2.0))”; in experiment [4] (HIV-positive patient one), “− (−, Negative (SI < 2.0))”; in experiment [4] (HIV-positive patient seven), “+ (+, Positive (Stimulation Index [SI] > 2.0))”; in experiment [4] (HIV-positive patient six) it was “+ (+, Positive (Stimulation Index [SI] > 2.0))”. Further, the T-cell proliferative response entry in experiment [4] (HIV-positive patient ten) is given as “− (−, Negative (SI < 2.0))”; in experiment [4] (HIV-positive patient thirteen), “− (−, Negative (SI < 2.0))”; in experiment [4] (HIV-positive patient three), “− (−, Negative (SI < 2.0))”; in experiment [4] (HIV-positive patient twelve), “− (−, Negative (SI < 2.0))”; in experiment [4] (HIV-positive patient two), “− (−, Negative (SI < 2.0))”; in experiment [4] (Normal-1 (HIV-seronegative)) it was “− (−, Negative (SI < 2.0))”. The T-cell proliferative response entry was “− (−, Negative (SI < 2.0))” in experiment [4] (Normal-2 (HIV-seronegative)); “− (−, Negative (SI < 2.0))” in experiment [6] (chimpanzee 40, control normal); “+ (+, Positive (Stimulation Index [SI] > 2.0))” in experiment [6] (chimpanzee 62, HIV-infected); “+ (+, Positive (Stimulation Index [SI] > 2.0))” in experiment [6] (chimpanzee 69, HIV-infected); “− (−, Negative (SI < 2.0))” in experiment [6] (chimpanzee 73, control normal); “+ (+, Positive (Stimulation Index [SI] > 2.0))” in experiment [6] (chimpanzee 80, HIV-infected). Besides, the T-cell proliferative response entry is “− (−, Negative (SI < 2.0))” in experiment [6] (chimpanzee 99, HIV-infected); “+ (+, Positive (Stimulation Index [SI] > 2.0))” in experiment [6] (chimpanzee 100, HIV-infected); “− (−, Negative (SI < 2.0))” in experiment [6] (chimpanzee 139, HIV-infected); “− (−, Negative (SI < 2.0))” in experiment [6] (chimpanzee 175, HIV-infected); “− (−, Negative (SI < 2.0))” in experiment [6] (chimpanzee 247, HIV-infected); “− (−, Negative (SI < 2.0))” in experiment [6] (chimpanzee 310, HIV-infected).

Consider YLRDQQLLGIWGC [Peptide 61], for which, in experiment [1], the “T-cell proliferative response to immunizing peptide and HIV Env protein gp160” value is “induced a T-cell response against both the immunizing peptide and the HIV Env protein”; the “antibodies recognizing recombinant gp160” value is given as “did not produce antibodies that could recognize recombinant gp160”; the T-cell proliferation responses entry is on record as “relatively good T-cell proliferation responses”. For the same sequence, in the experiment on PBMCs (monkey, in vivo), the “proliferative response of PBMCs” value is listed as “PMBCs from two of the monkeys showed good proliferative responses”. In experiment [2], the “% Specific lysis at various E:T ratios 12.5:1” value was 4.0%, the “% Specific lysis at various E:T ratios 25:1” value turned out to be 4.0%, the “% Specific lysis at various E:T ratios 50:1” value is given as 14.5% and the “% Specific lysis at various E:T ratios 100:1” value is 15.0%. Besides, in experiment [2], the “CTL activity against peptide-pulsed autologous B-LCLs” value was “significant CTL activity” and the “specific lysis of peptide-pulsed target cells” value is on record as “also observed”.
